Data as given in US20050153306A1, “Fluorogenic enzyme substrates and uses thereof” (IRM LLC, priority 2003, published 2005).

Key:
caspase-3 = biological target: T1, caspase-3 (Homo sapiens, UniProt P42574); test: Enzymatic activity monitored using rhodamine protease substrates (fluorescence); format: biochemical; design: made in house; settings: substrate 250 μM, caspase-3 10 nM, 37° C.
T1 sequence (P42574 29-175 limits assumed): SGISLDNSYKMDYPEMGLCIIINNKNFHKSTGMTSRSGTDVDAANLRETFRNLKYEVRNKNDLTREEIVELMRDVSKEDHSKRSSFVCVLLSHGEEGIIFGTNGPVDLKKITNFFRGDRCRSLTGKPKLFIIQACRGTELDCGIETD
T1 sequence (P42574 176-277 limits assumed): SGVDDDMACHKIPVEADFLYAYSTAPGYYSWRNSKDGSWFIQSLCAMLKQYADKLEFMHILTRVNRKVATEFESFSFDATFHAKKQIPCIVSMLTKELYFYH
Method: (§1) The substrates 1 and 3 were used at 250 μM. Thrombin was used at a concentration of 500 pM and caspase-3 was used at a concentration of 10 nM. For thrombin a buffer consisting of 50 mM Tris (pH 7.4),200 mM NaCl, 5 mM CaCI2 and 0.01% (v/v) Tween-20 (THB) was used. The buffer for caspase-3 (CAB) consisted of 20 mM HEPES (pH 7.4), 100 mM NaCi, inM EDTA, 0.1% CHAPS,10% (w/v) sucrose and 10 mM DTT. 50 µl of the buffer containing the substrate at a concentration of 500 JIM were transferred into a well of a black 96-well Microfluor plate (Dynex Technologies, Chantilly, Va.). The reaction was initiated by the addition of 50 μL of the buffer containing the enzyme at a concentration of 1 nM for thrombin or 20 nM for caspase-3. The hydrolysis of rhodamine substrates was measured with a Spectramax Gemini XS spectrofluorimeter (Molecular devices, Sunnyvale, Calif.) thermostated at 37° C. using an excitation wavelength of 490 nm, an emission wavelength of 530 nm and a cutoff wavelength of 515 nm.

Thrombin = biological target: T2, Thrombin (Homo sapiens, UniProt P00734); test: as above; format: biochemical; settings: substrate 250 μM, thrombin 500 pM, 37° C.
T2 construct: purchased Haematologic Technologies (Essex Jct., Vt.)
Method: as §1

Row | fluorescence signal (enzymatic hydrolysis of the rhodamine substrate) (caspase-3) | fluorescence signal (enzymatic hydrolysis of the rhodamine substrate) (caspase-3; listed as (DEVD)2-rhodamine-Ac) | fluorescence signal (enzymatic hydrolysis of the rhodamine substrate) (Thrombin) | fluorescence signal (enzymatic hydrolysis of the rhodamine substrate) (Thrombin; listed as (nTPR)2-rhodamine-Ac) | Substance
1 | strong fluorescent signal | linear increase in fluorescence | only a slight increase in fluorescence | – | (Ac-DEVD)2-rhodamine-Lys(Ac) [compound 1]
2 | only a slight increase in fluorescence | – | strong fluorescent signal | linear increase in fluorescence | (Ac-nTPR)2-rhodamine-Lys(Ac) [compound 3]
